Like-named read-outs stand apart in the source and are kept apart here. Positions of bridges follow the written chain, without caps; N, C: chain ends. Non-standard residues stand in square brackets, D forms with d. Residues, ends and D or L forms follow the SMILES beside them. No end group written: not given here. *: point of attachment. Phe(3-Cl) = N[C@@H](Cc1cccc(Cl)c1)C(=O)O; Stearoyl = CCCCCCCCCCCCCCCCCC(=O)*; hCys = N[C@@H](CCS)C(=O)O; Nle = CCCC[C@H](N)C(=O)O; Orn = NCCC[C@H](N)C(=O)O; Dab = NCC[C@H](N)C(=O)O
Columns and labels:
[1] = plasma
Procedure: (§4) For the YAP inhibitory polypeptides modified in above (a) and (b), the IC50 values for TEAD binding and the stability in plasma were measured.

[2] = Cell penetration or infiltration of polypeptides; type: cell-based; conditions: penetration of the peptide with RRMKWKK taken as 100%
Source text: In this example, the sequence was modified based on SEQ ID NO.: 1. Some preferred modification based on the tested results included: adding a disulfide linkage within the peptide, or adding a cell-penetrating element.

[3] = system: HCCLM3; type: cell-based
Procedure: (§1) The hepatoma cell line BEL7404 (purchased from The Chinese Academy of Sciences cell bank) was a cell line with high expression of YAP protein; HCCLM3 (purchased from The Chinese Academy of Sciences cell bank) was a cell line with low expression of YAP protein. The hepatoma cell lines (BEL7404 or HCCLM3) were inoculated into a 96-well plate at the concentration of 2000 cells/well, and incubated overnight in RPMI1640 containing 1% bovine serum at 37° C. The hepatoma cell lines were treated with polypeptides having different concentrations at 37° C. for 72 h.
(§2) Moreover, IC50 values of the cells in 1.1 were determined using CCK-8 kit.
(§3) The polypeptide represented by SEQ ID NO.:1 was further modified. The IC50 values of the polypeptides at a concentration of 1% in cell cultivating for 72 h were measured.

[4] = system: BEL7404; type: cell-based
Procedure: as §1, §2, §3

[5] = system: MHCC97L; test: Cell proliferation inhibition of MHCC97L by liposome formulations / acylated polypeptides, CCK-8; type: cell-based
Procedure: MHCC97L (ATCC) cells were seeded in 96-well plates with 10% FBS DMEM medium at a density of 4000 cells/well and incubated overnight at 37° C. […] The cell viability was determined by CCK-8 kit.

[6] = system: BEL7404; test: Cell proliferation inhibition of BEL7404 by liposome formulations / acylated polypeptides, CCK-8; type: cell-based
[7] = Stability in plasma (residual peptide)
Procedure: as §4

[8] = in vitro; conditions: plasma
Procedure: as §4

[9] = biological target: TEAD (UniProt P28347); test: TEAD binding (TR-FRET test)
Procedure: The interaction of the two molecules makes the two fluorophores close to each other and generate energy transfer, and then fluoresce at specific wavelength is transmitted.
The sequences of the modified peptides were represented by SEQ ID NOs.: 8 and 9. The IC50 values for TEAD binding and stability in plasma were measured.
The modified polypeptides were tested to measure IC50 values for TEAD binding and stability in plasma.

TEAD, sequence (P28347 whole entry): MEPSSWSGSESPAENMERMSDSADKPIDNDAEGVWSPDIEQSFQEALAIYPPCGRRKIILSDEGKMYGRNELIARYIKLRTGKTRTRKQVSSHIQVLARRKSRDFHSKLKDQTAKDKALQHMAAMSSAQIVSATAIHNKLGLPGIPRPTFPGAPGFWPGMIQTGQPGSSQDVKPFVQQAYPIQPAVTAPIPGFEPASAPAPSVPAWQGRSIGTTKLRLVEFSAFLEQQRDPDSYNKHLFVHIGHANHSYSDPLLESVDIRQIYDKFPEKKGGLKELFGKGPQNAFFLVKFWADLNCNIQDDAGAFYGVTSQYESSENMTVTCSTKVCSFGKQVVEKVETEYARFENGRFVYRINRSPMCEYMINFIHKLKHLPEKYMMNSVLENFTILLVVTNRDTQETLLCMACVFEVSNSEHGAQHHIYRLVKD

## 3: Peptide (SEQ ID NO.: 1) + Cell-penetrating element 1 (RRMKWKK, SEQ ID NO.: 13) (VPMRLRKLPDSFFKPPERRMKWKK; cell penetrating element; listed as Homo sapiens) [Peptide 3]
[1]
  Stability (4 h): 49%
[2]
  Percentage of Cell penetration or infiltration: 100%

## 4: Peptide (SEQ ID NO.: 1) + Cell-penetrating element 2 (RGRKKRRQRRR, SEQ ID NO.: 14) (VPMRLRKLPDSFFKPPERGRKKRRQRRR; cell penetrating element; listed as Homo sapiens) [Peptide 4]
[2]
  Percentage of Cell penetration or infiltration: 135%

## 32 (VPXLXKKXPASFKCPPRRMKWKK; (3)..(3) Xaa=(3Cl-)F; (5)..(5) Xaa=Hcy; (8)..(8) Xaa=Nle) [compound 32]
[3]; concentration of 1% in cell cultivating for 72 h, read-out: IC50 HCCLM3
  IC50: 319 ± 17.5 µM
[4]; concentration of 1% in cell cultivating for 72 h, read-out: IC50 BEL7404
  IC50: 38.4 ± 3.8 µM

## CCCCCCCCCCCCCCCCCC(=O)NCCCC[C@H](NC(=O)[C@@H]1CSSCC[C@H](NC(=O)[C@H](CCCCN)NC(=O)[C@H](CCCCN)NC(=O)[C@H](CC(C)C)NC(=O)[C@H](Cc2cccc(Cl)c2)NC(=O)[C@@H]2CCCN2C(=O)[C@@H](NC(C)=O)C(C)C)C(=O)N[C@@H](CCCC)C(=O)N2CCC[C@H]2C(=O)N[C@@H](C)C(=O)N[C@@H](CO)C(=O)N[C@@H](Cc2ccccc2)C(=O)N[C@@H](CCCCN)C(=O)N2CCC[C@H]2C(=O)N2CCC[C@H]2C(=O)N1)C(N)=O [P49 polypeptide] (Ac-VP[Phe(3-Cl)]LKK[hCys][Nle]PASFKPPCK(Stearoyl)-NH2; disulfide 7-16)
[5]
  IC50: 7.83 ± 2.69 µM
[6]
  IC50: 2.02 ± 0.39 µM

## CSCC[C@H](NC(=O)[C@@H]1CCCN1C(=O)[C@@H](N)C(C)C)C(=O)N[C@H]1CCSSC[C@@H](C(=O)N[C@@H](CCCCN)C(=O)N2CCC[C@H]2C(=O)N2CCC[C@H]2C(=O)N[C@@H](CCC(=O)O)C(=O)O)NC(=O)[C@H](Cc2ccccc2)NC(=O)[C@H](CO)NC(=O)[C@H](CC(=O)O)NC(=O)[C@@H]2CCCN2C(=O)[C@H](CC(C)C)NC(=O)[C@H](CCCCN)NC(=O)[C@H](CCCNC(=N)N)NC(=O)[C@H](CC(C)C)NC1=O [Peptide 2]
[7]; plasma, Stability (4 h), plasma, percentage of residual peptides after 4 h
  remaining at 4 h: 93%
[2]
  Percentage of Cell penetration or infiltration: 8%

## CSCC[C@H](NC(=O)[C@@H]1CCCN1C(=O)[C@@H](N)C(C)C)C(=O)N[C@@H](CCCNC(=N)N)C(=O)N[C@@H](CC(C)C)C(=O)N[C@@H](CCCNC(=N)N)C(=O)N[C@@H](CCCCN)C(=O)N[C@@H](CC(C)C)C(=O)N1CCC[C@H]1C(=O)N[C@@H](CC(=O)O)C(=O)N[C@@H](CO)C(=O)N[C@@H](Cc1ccccc1)C(=O)N[C@@H](Cc1ccccc1)C(=O)N[C@@H](CCCCN)C(=O)N1CCC[C@H]1C(=O)N1CCC[C@H]1C(=O)N[C@@H](CCC(=O)O)C(=O)O [SEQ ID NO.: 1]
[7]
  stability (in words): low stability
[7]; plasma
  remaining at 4 h: 0%
[7]; plasma, percentage of residual peptides after >24 h
  Stability (>24 h): 0%
[3]; 72 h
  IC50: 809 ± 27.4 µM
[4]; 72 h
  IC50: 388 ± 43.6 µM

## CC(C)C[C@@H]1NC(=O)[C@@H](NC(=O)[C@H](Cc2ccccc2)NC(=O)[C@@H]2CCCN2C(=O)[C@@H](N)C(C)C)CCSSC[C@@H](C(=O)N[C@@H](CCCCN)C(=O)N2CCC[C@H]2C(=O)N2CCC[C@H]2C(=O)N[C@@H](CCC(=O)O)C(=O)O)NC(=O)[C@H](Cc2ccccc2)NC(=O)[C@H](CO)NC(=O)[C@H](CC(=O)O)NC(=O)[C@@H]2CCCN2C(=O)[C@H](CC(C)C)NC(=O)[C@H](CCCN)NC(=O)[C@H](CCCNC(=N)N)NC1=O [compound 5] (H-VPF[hCys]LR[Orn]LPDSFCKPPE-OH; disulfide 4-13 (inferred); N-terminus and C-terminus assumed)
[8]
  remaining at 4 h: 99%
[9]
  IC50: 0.043 µM

## CC(C)C[C@@H]1NC(=O)[C@@H](NC(=O)[C@H](Cc2ccccc2)NC(=O)[C@@H]2CCCN2C(=O)[C@@H](N)C(C)C)CCSSC[C@@H](C(=O)N[C@@H](CCCCN)C(=O)N2CCC[C@H]2C(=O)N2CCC[C@H]2C(=O)N[C@@H](CCC(=O)O)C(=O)O)NC(=O)[C@H](Cc2ccccc2)NC(=O)[C@H](CO)NC(=O)[C@H](CC(=O)O)NC(=O)[C@@H]2CCCN2C(=O)[C@H](CC(C)C)NC(=O)[C@H](CCN)NC(=O)[C@H](CCCNC(=N)N)NC1=O [compound 6] (H-VPF[hCys]LR[Dab]LPDSFCKPPE-OH; disulfide 4-13 (inferred); N-terminus and C-terminus assumed)
[8]
  remaining at 4 h: 98%
[9]
  IC50: 0.028 µM

## CSCC[C@H](NC(=O)[C@@H]1CCCN1C(=O)[C@@H](N)C(C)C)C(=O)N[C@H]1CSSC[C@@H](C(=O)N[C@@H](Cc2c[nH]cn2)C(=O)N2CCC[C@H]2C(=O)N2CCC[C@H]2C(=O)N[C@@H](CCC(=O)O)C(=O)O)NC(=O)[C@H](Cc2ccccc2)NC(=O)[C@H](CO)NC(=O)[C@H](CCC(=O)O)NC(=O)[C@@H]2CCCN2C(=O)[C@H](CC(C)C)NC(=O)[C@H](CCCCN)NC(=O)[C@H](CCCNC(=N)N)NC(=O)[C@H](CC(C)C)NC1=O [compound 8] (H-VPMCLRKLPESFCHPPE-OH; disulfide 4-13; N-terminus and C-terminus assumed)
[8]
  remaining at 4 h: 105%
[9]
  IC50: 0.028 µM

## CSCC[C@H](NC(=O)[C@@H]1CCCN1C(=O)[C@@H](N)C(C)C)C(=O)N[C@H]1CCSSC[C@@H](C(=O)N[C@@H](CC(=O)O)C(=O)N2CCC[C@H]2C(=O)N2CCC[C@H]2C(=O)N[C@@H](CCC(=O)O)C(=O)O)NC(=O)[C@H](Cc2ccccc2)NC(=O)[C@H](CO)NC(=O)[C@H](CS)NC(=O)[C@@H]2CCCN2C(=O)[C@H](CC(C)C)NC(=O)[C@H](CCCCN)NC(=O)[C@H](CCCNC(=N)N)NC(=O)[C@H](CC(C)C)NC1=O [compound 9] (H-VPM[hCys]LRKLPCSFCDPPE-OH; disulfide 4-13)
[8]
  remaining at 4 h: 100%
[9]
  IC50: 0.025 µM

## PAGWEMAKTSSGQRYF [compound 20]
[3]; 72 h
  IC50: > 1000 µM
[4]; 72 h
  IC50: 444 ± 46.5 µM

## PQGQGPPSGPGQPAPA [compound 16]
[3]; 72 h
  IC50: > 1000 µM
[4]; 72 h
  IC50: 242 ± 27.2 µM
